In PMC5384750 (PLoS ONE, 2017):
Values belong to the compound of their own block, whether it stands above or below them.

Key:
[1] = target: T1, insulin-degrading enzyme (IDE) (Homo sapiens, UniProt P14735); assay: Inhibition of / competition with sp6 or sp6BY degradation in S10 extract; format: biochemical; settings: 30 min, 37°C; for stabilization of sp6BY by known IDE-inhibitors: 10 ng sp6BY, 5 μg S10 extract, increasing concentrations, fluorescence, at least three independent experiments (S2 Fig); for stabilization of sp6 by protease inhibitor (initial screen): 100 ng sp6, 5 μg S10 extract, Western blot, 1.3 mM EDTA, 130 μM Bestatin, 600 nM Phosphoramidon
T1 construct: endogenous in cells; host or cells: HeLa cells (cytosolic S10 extract)
Protocol: (§1) For generation of S10, confluent dishes with HeLa cells were extensively washed and subsequently lysed with a modified S10 buffer (250 mM sucrose, 80 mM KCl, 10 mM Tris pH 7.6, 0.1% (v/v) Triton X-100 [91]). Debris and nuclei were removed by centrifugation at 10.000 × g for 10 min. Protein content was determined by BCA-Assay (Pierce) and aliquots stored at -80°C.
(§2) Reactions were stopped by addition of sample buffer and incubation at 95°C for 5 min. Remaining p6 was detected by Western blotting using an anti-p6 rabbit antiserum. Alternatively, 10 ng of BODIPY FL-labeled sp6 (sp6BY) were used as substrate and detected directly in the polyacrylamide gel by fluorescence scanning. In some experiments the amount of p6 was densitometrically quantified with the software AIDA (Raytest). For the in vitro degradation of amyloid-β 10 ng of Aβ-FITC (abcam) were used analogously to sp6BY. For the in vitro degradation of viral p6, VLPs were pelleted and lysed in IDE enzyme buffer (150 mM NaCl, 50 mM Tris pH 7.4, 0.5% (v/v) Triton X-100). The p6 content was estimated by Western blotting using a dilution series of sp6 with known concentrations. Equivalents of 15 ng were used for digestion experiments and subsequently detected by Western blotting. Experiments carried out with recombinant IDE (Calbiochem) were performed in IDE enzyme buffer.
Bestatin, Chymostatin, E-64, Leupeptin, Pepstatin, Phosphoramidon, Pefabloc SC, EDTA, Aprotinin, Antipain were purchased from Roche as part of a protease inhibitors set and used at the following concentrations: 74 μM Antipain; 130 μM Bestatin; 100 μM Chymostatin; 28 μM E-64; 1 μM Leupeptin; 1 μM Pepstatin; 600 nM Phosphoramidon; 4 mM Pefabloc SC; 1.3 mM EDTA; […]. […] (Phoenix Pharmaceuticals and Tocris), TPEN (Calbiochem), and NEM (Roche) were purchased from companies indicated.

[2] = In vitro degradation in cytosolic S10 HeLa cell extract; format: in vitro ADME; settings: 10 ng sp6BY E0A or vp6 S40F, S14N, K27/33R; 5 μg S10 extract, 37°C; fluorescence or Western blot; three independent experiments (S1B Fig)
Protocol: as §1
as §2, with “Typically 5 μg S10 were incubated with inhibitor or buffer and 20–100 ng sp6 at 37°C for 30 min. Reactions” for “Reactions”, “buffer. Recombinant FITC-labeled insulin was purchased from Sigma.” for “buffer.”

recombinant IDE (rIDE) = target: T2, recombinant IDE (rIDE) (Rattus norvegicus, UniProt P35559); assay: Inhibition of rIDE-mediated degradation of sp6BY; format: biochemical; settings: 10 ng rIDE, 10 ng sp6BY, 30 min, 37°C; TPEN 1 mM, NEM 1 mM, insulin 100 μg/ml
T2 construct: purchased Calbiochem
Protocol: Fig 6 IDE is sufficient and required for the in vitro degradation of sp6 and vp6. (A) 10 ng sp6BY were incubated with 5 μg S10 extract from HeLa cells, either untransfected or transfected with control or IDE-specific siRNA, for 0, 10, 30 or 90 min at 37°C. (B) sp6BY was detected by fluorescence emission and quantified. (C) VLP lysates from HEK293T cells were incubated with S10 from siRNA treated cells described in A. Viral proteins were detected as described in Fig 1. (D) Western blot analyses of the S10 extract used in A and C. The membrane was stained with antibodies specific for IDE, HSP70, and β-actin. […] (F) VLP lysates were incubated with 10 ng rIDE for 30 min.
as §2, with “Typically 5 μg S10 were incubated with inhibitor or buffer and 20–100 ng sp6 at 37°C for 30 min. Reactions” for “Reactions”, “buffer. Recombinant FITC-labeled insulin was purchased from Sigma.” for “buffer.”

[3] = cytosolic S10 HeLa cell extract (S10); settings: 37°C, up to 60 min
purified mammalian IDE = settings: cited from earlier work

T1 sequence (P14735 whole entry): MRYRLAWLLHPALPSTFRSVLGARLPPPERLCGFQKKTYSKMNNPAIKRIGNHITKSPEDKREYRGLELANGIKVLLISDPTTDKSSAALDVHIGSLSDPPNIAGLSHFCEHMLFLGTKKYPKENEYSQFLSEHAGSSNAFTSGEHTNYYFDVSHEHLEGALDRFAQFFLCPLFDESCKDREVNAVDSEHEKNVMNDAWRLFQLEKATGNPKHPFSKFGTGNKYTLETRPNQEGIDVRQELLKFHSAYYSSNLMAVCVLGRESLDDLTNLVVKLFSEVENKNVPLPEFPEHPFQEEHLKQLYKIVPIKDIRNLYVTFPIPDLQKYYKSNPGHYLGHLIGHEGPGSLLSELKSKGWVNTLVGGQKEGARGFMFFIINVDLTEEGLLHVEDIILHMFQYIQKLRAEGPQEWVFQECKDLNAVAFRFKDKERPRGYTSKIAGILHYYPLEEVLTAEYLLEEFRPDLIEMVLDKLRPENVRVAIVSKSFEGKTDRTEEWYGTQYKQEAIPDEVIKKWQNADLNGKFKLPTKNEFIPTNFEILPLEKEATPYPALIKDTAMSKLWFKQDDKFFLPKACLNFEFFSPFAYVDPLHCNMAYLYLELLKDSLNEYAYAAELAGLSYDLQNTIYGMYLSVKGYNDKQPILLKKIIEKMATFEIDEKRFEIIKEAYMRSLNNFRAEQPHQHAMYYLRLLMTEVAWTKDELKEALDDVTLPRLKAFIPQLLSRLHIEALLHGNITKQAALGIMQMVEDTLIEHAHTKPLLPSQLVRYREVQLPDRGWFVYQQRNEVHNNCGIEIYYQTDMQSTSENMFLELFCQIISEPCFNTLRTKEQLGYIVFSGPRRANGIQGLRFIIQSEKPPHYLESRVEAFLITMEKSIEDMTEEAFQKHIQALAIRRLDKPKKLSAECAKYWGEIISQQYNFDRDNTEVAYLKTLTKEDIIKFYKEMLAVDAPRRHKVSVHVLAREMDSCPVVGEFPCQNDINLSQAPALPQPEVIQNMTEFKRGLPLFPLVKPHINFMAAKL
T2 sequence (P35559 whole entry): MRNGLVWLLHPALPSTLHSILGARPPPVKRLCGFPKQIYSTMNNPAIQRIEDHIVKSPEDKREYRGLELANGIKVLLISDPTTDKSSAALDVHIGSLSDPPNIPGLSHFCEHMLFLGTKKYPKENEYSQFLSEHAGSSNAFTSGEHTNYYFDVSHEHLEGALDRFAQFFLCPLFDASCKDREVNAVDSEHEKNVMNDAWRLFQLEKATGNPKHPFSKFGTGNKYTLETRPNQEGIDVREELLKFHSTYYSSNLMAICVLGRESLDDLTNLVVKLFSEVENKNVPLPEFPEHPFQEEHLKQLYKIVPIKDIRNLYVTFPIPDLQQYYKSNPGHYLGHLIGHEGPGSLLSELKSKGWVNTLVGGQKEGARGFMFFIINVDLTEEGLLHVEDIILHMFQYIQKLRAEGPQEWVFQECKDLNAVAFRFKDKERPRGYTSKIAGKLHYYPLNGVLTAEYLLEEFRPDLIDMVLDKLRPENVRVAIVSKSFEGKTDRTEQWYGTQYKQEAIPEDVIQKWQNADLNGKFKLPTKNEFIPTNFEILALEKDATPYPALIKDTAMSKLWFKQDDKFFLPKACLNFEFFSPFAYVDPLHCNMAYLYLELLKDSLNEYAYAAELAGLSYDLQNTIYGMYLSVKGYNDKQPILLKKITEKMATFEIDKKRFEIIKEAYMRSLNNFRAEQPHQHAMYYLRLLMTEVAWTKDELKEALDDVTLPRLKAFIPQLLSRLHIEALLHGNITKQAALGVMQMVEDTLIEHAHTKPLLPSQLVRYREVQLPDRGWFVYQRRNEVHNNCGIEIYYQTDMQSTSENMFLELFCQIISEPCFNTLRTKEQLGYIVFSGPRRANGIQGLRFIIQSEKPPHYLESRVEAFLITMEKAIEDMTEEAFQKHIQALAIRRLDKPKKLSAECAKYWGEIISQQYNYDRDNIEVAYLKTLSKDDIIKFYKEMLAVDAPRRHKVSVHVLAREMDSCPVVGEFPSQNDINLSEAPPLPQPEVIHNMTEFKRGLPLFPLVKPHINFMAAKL

Compound: Nc1ncnc2c1ncn2[C@@H]1O[C@H](COP(=O)(O)OP(=O)(O)OP(=O)(O)O)[C@@H](O)[C@H]1O [ATP]
stabilization of sp6BY by known IDE-inhibitors [1]: prevented the degradation of p6

Compound: CC(C)C[C@H](NC(=O)[C@@H](O)[C@H](N)Cc1ccccc1)C(=O)O [Bestatin]
stabilization of sp6 by protease inhibitor (initial screen) [1]: did not stabilize p6

Compound: O=C(O)CN(CCN(CC(=O)O)CC(=O)O)CC(=O)O [EDTA]
stabilization of sp6 by protease inhibitor (initial screen) [1]: could stabilize sp6

Compound: CC[C@H](C)[C@H](NC(=O)[C@@H]1CCCN1C(=O)[C@H](CCC(=O)O)NC(=O)[C@H](CCC(N)=O)NC(=O)[C@H](CCCNC(=N)N)NC(=O)[C@H](CCC(N)=O)NC(=O)[C@H](CO)NC(=O)[C@@H]1CCCN1C(=O)[C@@H](NC(=O)[C@@H](NC(=O)[C@@H](NC(=O)[C@H](CCC(=O)O)NC(=O)[C@H](CCC(=O)O)NC(=O)CNC(=O)[C@H](Cc1ccccc1)NC(=O)[C@H](CCCNC(=N)N)NC(=O)[C@H](Cc1ccccc1)NC(=O)[C@H](CO)NC(=O)[C@H](CCC(=O)O)NC(=O)[C@H](CCC(=O)O)NC(=O)[C@@H]1CCCN1C(=O)[C@@H]1CCCN1C(=O)[C@H](C)NC(=O)[C@@H](NC(=O)[C@@H]1CCCN1C(=O)[C@H](CCC(=O)O)NC(=O)[C@@H]1CCCN1C(=O)[C@H](CCCNC(=N)N)NC(=O)[C@H](CO)NC(=O)[C@H](CCC(N)=O)NC(=O)[C@@H](N)CC(C)C)[C@@H](C)O)[C@@H](C)O)[C@@H](C)O)[C@@H](C)O)C(=O)N[C@@H](CC(=O)O)C(=O)N[C@@H](CCCNC(=N)N)C(=O)N[C@@H](CCC(=O)O)C(=O)N[C@@H](CC(C)C)C(=O)N[C@@H](Cc1ccc(O)cc1)C(=O)N1CCC[C@H]1C(=O)N[C@@H](CC(C)C)C(=O)N[C@@H](C)C(=O)N[C@@H](CO)C(=O)N[C@@H](CC(C)C)C(=O)N[C@@H](CCCNC(=N)N)C(=O)N[C@@H](CO)C(=O)N[C@@H](CC(C)C)C(=O)N[C@@H](Cc1ccccc1)C(=O)NCC(=O)N[C@@H](CO)C(=O)N[C@@H](CC(=O)O)C(=O)N1CCC[C@H]1C(=O)N[C@@H](CO)C(=O)N[C@@H](CO)C(=O)N[C@@H](CCC(N)=O)C(=O)O [K27/33R]
degradation efficiency of HIV-1NL4-3 p6 mutants in S10 extract [2]: wt degradation efficiency

Compound: CCN1C(=O)C=CC1=O [NEM, N-ethylmaleimide]
stabilization of sp6 in the presence of rIDE (recombinant IDE (rIDE)): stabilized sp6
stabilization of sp6BY by known IDE-inhibitors [1]: prevented the degradation of p6

Compound: CC(C)C[C@H](NP(=O)(O)O[C@@H]1O[C@@H](C)[C@H](O)[C@@H](O)[C@H]1O)C(=O)N[C@@H](Cc1c[nH]c2ccccc12)C(=O)O [Phosphoramidon]
stabilization of sp6 by protease inhibitor (initial screen) [1]: failed to stabilize p6

Compound: CC[C@H](C)[C@H](NC(=O)[C@@H]1CCCN1C(=O)[C@H](CCC(=O)O)NC(=O)[C@H](CCC(N)=O)NC(=O)[C@H](CCCCN)NC(=O)[C@H](CCC(N)=O)NC(=O)[C@H](CO)NC(=O)[C@@H]1CCCN1C(=O)[C@@H](NC(=O)[C@@H](NC(=O)[C@@H](NC(=O)[C@H](CCC(=O)O)NC(=O)[C@H](CCC(=O)O)NC(=O)CNC(=O)[C@H](Cc1ccccc1)NC(=O)[C@H](CCCNC(=N)N)NC(=O)[C@H](Cc1ccccc1)NC(=O)[C@H](CC(N)=O)NC(=O)[C@H](CCC(=O)O)NC(=O)[C@H](CCC(=O)O)NC(=O)[C@@H]1CCCN1C(=O)[C@@H]1CCCN1C(=O)[C@H](C)NC(=O)[C@@H](NC(=O)[C@@H]1CCCN1C(=O)[C@H](CCC(=O)O)NC(=O)[C@@H]1CCCN1C(=O)[C@H](CCCNC(=N)N)NC(=O)[C@H](CO)NC(=O)[C@H](CCC(N)=O)NC(=O)[C@@H](N)CC(C)C)[C@@H](C)O)[C@@H](C)O)[C@@H](C)O)[C@@H](C)O)C(=O)N[C@@H](CC(=O)O)C(=O)N[C@@H](CCCCN)C(=O)N[C@@H](CCC(=O)O)C(=O)N[C@@H](CC(C)C)C(=O)N[C@@H](Cc1ccc(O)cc1)C(=O)N1CCC[C@H]1C(=O)N[C@@H](CC(C)C)C(=O)N[C@@H](C)C(=O)N[C@@H](CO)C(=O)N[C@@H](CC(C)C)C(=O)N[C@@H](CCCNC(=N)N)C(=O)N[C@@H](CO)C(=O)N[C@@H](CC(C)C)C(=O)N[C@@H](Cc1ccccc1)C(=O)NCC(=O)N[C@@H](CO)C(=O)N[C@@H](CC(=O)O)C(=O)N1CCC[C@H]1C(=O)N[C@@H](CO)C(=O)N[C@@H](CO)C(=O)N[C@@H](CCC(N)=O)C(=O)O [S14N]
degradation efficiency of HIV-1NL4-3 p6 mutants in S10 extract [2]: wt degradation efficiency

Compound: CC[C@H](C)[C@H](NC(=O)[C@@H]1CCCN1C(=O)[C@H](CCC(=O)O)NC(=O)[C@H](CCC(N)=O)NC(=O)[C@H](CCCCN)NC(=O)[C@H](CCC(N)=O)NC(=O)[C@H](CO)NC(=O)[C@@H]1CCCN1C(=O)[C@@H](NC(=O)[C@@H](NC(=O)[C@@H](NC(=O)[C@H](CCC(=O)O)NC(=O)[C@H](CCC(=O)O)NC(=O)CNC(=O)[C@H](Cc1ccccc1)NC(=O)[C@H](CCCNC(=N)N)NC(=O)[C@H](Cc1ccccc1)NC(=O)[C@H](CO)NC(=O)[C@H](CCC(=O)O)NC(=O)[C@H](CCC(=O)O)NC(=O)[C@@H]1CCCN1C(=O)[C@@H]1CCCN1C(=O)[C@H](C)NC(=O)[C@@H](NC(=O)[C@@H]1CCCN1C(=O)[C@H](CCC(=O)O)NC(=O)[C@@H]1CCCN1C(=O)[C@H](CCCNC(=N)N)NC(=O)[C@H](CO)NC(=O)[C@H](CCC(N)=O)NC(=O)[C@@H](N)CC(C)C)[C@@H](C)O)[C@@H](C)O)[C@@H](C)O)[C@@H](C)O)C(=O)N[C@@H](CC(=O)O)C(=O)N[C@@H](CCCCN)C(=O)N[C@@H](CCC(=O)O)C(=O)N[C@@H](CC(C)C)C(=O)N[C@@H](Cc1ccc(O)cc1)C(=O)N1CCC[C@H]1C(=O)N[C@@H](CC(C)C)C(=O)N[C@@H](C)C(=O)N[C@@H](Cc1ccccc1)C(=O)N[C@@H](CC(C)C)C(=O)N[C@@H](CCCNC(=N)N)C(=O)N[C@@H](CO)C(=O)N[C@@H](CC(C)C)C(=O)N[C@@H](Cc1ccccc1)C(=O)NCC(=O)N[C@@H](CO)C(=O)N[C@@H](CC(=O)O)C(=O)N1CCC[C@H]1C(=O)N[C@@H](CO)C(=O)N[C@@H](CO)C(=O)N[C@@H](CCC(N)=O)C(=O)O [S40F]
degradation efficiency of HIV-1NL4-3 p6 mutants in S10 extract [2]: wt degradation efficiency

Compound: c1ccc(CN(CCN(Cc2ccccn2)Cc2ccccn2)Cc2ccccn2)nc1 [TPEN]
stabilization of sp6 in the presence of rIDE (recombinant IDE (rIDE)): stabilized sp6

Compound: Bacitracin
stabilization of sp6BY by known IDE-inhibitors [1]: prevented the degradation of p6

not cleaved [3]: no degradation observed (up to 60 min)
Compound: PIQQKSQHNKSVVQETPQTQNLYPDLSEIKKEYNVKEKDQVEDLNLDSLWE

not cleaved [3]: no degradation observed (up to 60 min)
Compound: PMAQVHQGLMPTAPPEDPAVDLLKNYMQLGKQQREKQRESREKPYKEVTEDLLHLNSLFGGDQ

not cleaved [3]: no degradation observed (up to 60 min)
Compound: PVAQVPQGLTPTAPPVDPAVDLLEKYMQQGKRQREQRERPYKEVTEDLLHLEQGETPYREPPTEDLLHLNSLFGKDQ

Compound: amyloid-β [Aβ]
kcat (purified mammalian IDE; purified mammalian IDE): 0.875 s⁻¹
Km (purified mammalian IDE; rounded value): 1.2 µM
